Earlier results in US4101650A, “Pepstatin floating minicapsules” (Zaidan Hojin Biseibutsu Kagaku Kenkyu Kai, priority 1977, dated 1978).
Where a SMILES comes first, the peptide text is derived from it. [ ]: non-standard residue; d: D form. The star is where a group is joined. Sta = CC(C)C[C@H](N)[C@@H](O)CC(=O)O; Isovaleryl = CC(C)CC(=O)*

Columns and labels:
cathepsin D = cathepsin D (Homo sapiens, UniProt P07339)
renin = molecular target: T1, renin (Homo sapiens, UniProt P00797)
T1 sequence (P00797 67-406): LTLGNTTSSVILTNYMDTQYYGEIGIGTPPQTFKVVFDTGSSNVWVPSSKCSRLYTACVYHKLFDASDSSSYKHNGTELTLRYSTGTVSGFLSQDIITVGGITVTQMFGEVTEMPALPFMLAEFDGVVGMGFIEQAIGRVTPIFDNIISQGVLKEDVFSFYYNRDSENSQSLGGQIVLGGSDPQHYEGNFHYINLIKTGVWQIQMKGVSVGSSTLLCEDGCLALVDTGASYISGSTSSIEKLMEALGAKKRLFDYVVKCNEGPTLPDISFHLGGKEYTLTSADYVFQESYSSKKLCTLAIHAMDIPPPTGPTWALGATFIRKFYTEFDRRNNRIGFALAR

Chain of cathepsin D (P07339 65-412, species assumed): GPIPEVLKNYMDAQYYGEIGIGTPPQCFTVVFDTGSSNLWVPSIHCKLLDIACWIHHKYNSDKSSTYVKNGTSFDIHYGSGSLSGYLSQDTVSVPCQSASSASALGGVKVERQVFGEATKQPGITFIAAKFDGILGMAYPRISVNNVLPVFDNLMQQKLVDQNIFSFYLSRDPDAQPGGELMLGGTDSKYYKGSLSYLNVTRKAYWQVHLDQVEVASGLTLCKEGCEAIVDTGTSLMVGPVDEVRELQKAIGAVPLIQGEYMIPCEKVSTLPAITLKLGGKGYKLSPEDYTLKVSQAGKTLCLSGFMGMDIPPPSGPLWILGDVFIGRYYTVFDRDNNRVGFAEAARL

- inhibition of cathepsin D (cathepsin D): very strongly
- inhibition of renin (renin): relative strong inhibiton
Compound: CC(C)CC(=O)N[C@H](C(=O)N[C@H](C(=O)N[C@@H](CC(C)C)[C@@H](O)CC(=O)N[C@@H](C)C(=O)N[C@@H](CC(C)C)[C@@H](O)CC(=O)O)C(C)C)C(C)C [Pepstatin, RCO-L-Val-L-Val-AHMHA-L-Ala-AHMHA] (Isovaleryl-VV[Sta]A[Sta]-OH)
- inhibition of pepsin (pepsin): very strongly
